Measured values taken from patent US8053453B2, “Pyrazolone compounds and thrombopoietin receptor activator” (Nissan Chemical Industries, Ltd., priority 2002, dated 2011).
Like-named read-outs stand apart in the source and are kept apart here.

Target: T1, human TPO receptor (Homo sapiens, UniProt P40238)
T1 construct: expressed in transfected cells
T1 sequence (P40238 26-635): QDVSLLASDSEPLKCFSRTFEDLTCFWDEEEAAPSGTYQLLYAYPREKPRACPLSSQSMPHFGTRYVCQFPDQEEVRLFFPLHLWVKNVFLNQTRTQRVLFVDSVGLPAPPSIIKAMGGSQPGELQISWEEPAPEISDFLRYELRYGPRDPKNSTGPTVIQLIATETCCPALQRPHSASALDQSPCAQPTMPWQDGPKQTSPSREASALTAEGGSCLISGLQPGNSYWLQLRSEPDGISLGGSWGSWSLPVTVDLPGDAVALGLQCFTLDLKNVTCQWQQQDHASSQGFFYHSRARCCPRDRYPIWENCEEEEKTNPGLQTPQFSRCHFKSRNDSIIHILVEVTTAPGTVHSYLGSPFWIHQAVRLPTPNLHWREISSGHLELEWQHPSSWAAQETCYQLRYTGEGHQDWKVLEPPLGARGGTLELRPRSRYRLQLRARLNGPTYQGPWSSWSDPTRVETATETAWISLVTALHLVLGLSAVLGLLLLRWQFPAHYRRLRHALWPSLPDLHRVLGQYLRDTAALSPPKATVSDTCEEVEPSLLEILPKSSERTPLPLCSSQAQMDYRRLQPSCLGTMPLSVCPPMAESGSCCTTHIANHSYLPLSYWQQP
Test: Proliferation of TPO-dependent cell line UT7/EPO-mpl, MTT method (Assay Examples 1, 3, 4)
Format: cell-based
Settings: UT7/EPO-mpl cells; for Emax / Efficacy (%) (maximal growth rate): value in the presence of 10 ng/ml TPO taken as 100% standard, method of Assay Example 1; for Emax: read-out: Efficacy (%) (maximal growth rate); for EC50: concentration giving 50% of the maximum cell growth observed with the same compound
Procedure: The reactivity of Synthetic Example 56, the compound of the present invention, with thrombopoietin (TPO) receptor was assayed using a human leukemic cell line, UT7/EPO-mpl.
UT7/EPO-mpl is a stable transformed cell line obtained by introducing into human leukemic cell line UT7/EPO a vector that induces expression of human TPO receptor (c-mp1) under control of a cytomegaloviral promoter by the method of Takatoku et al. (J. Biol. Chem., 272:7259-7263 (1997)). […] These two cell lines were subcultured in Iscove's modified Dulbecco's medium (IMDM; GIBCO) containing 10% fetal bovine serum (FBS; TRACE SCIENTIFIC) using a CO2 incubator (5% CO2, 37° C.).
The subcultured cells described above were washed twice with phosphate buffered saline (PBS) and suspended in IMDM containing 10% FBS at a cell density of 6×10^4 cells/ml. The cell suspension was transferred to a 96-well tissue culture plate (CORNING) in 100-μl aliquots. Then either TPO (PeproTech EC) or Synthetic Example 56 dissolved in dimethylsulfoxide (DMSO) was diluted 83-fold with IMDM containing 10% FBS and added to the aforementioned cell suspension in 20-μl aliquots. The suspension was incubated in a CO2 incubator (5% CO2, 37° C.) for 4 days. Cell proliferation was assayed according to the method of Mosmann et al. (J. Immunol. Methods, 65:55-63 (1983)). A 10-μl aliquot of 5 mg/ml MTT reagent (SIGMA) was added to each well of the tissue culture plate and the plate was incubated at 37° C. for 4 h. The formazan pigment generated was dissolved by adding 150 μl per well of 0.1 M HCl/isopropanol solution and the absorbance of the resulting pigment solution was measured at 550 nm with a 96-well microplate reader (BIO-RAD, M450).
The following Synthetic Examples were tested according to the method of Assay Example 1 to determine the maximal growth rate (efficacy), expressed by taking the value with human leukemic cell line UT7/EPO-mpl observed in the presence of 10 ng/ml TPO as 100% standard, and the concentration of each compound that yields a growth rate corresponding to 50% of the maximum cell growth observed with the same compound (EC50).
Synthetic Example 56, the compound of the present invention, and four compounds (Reference Synthetic Examples 1 to 4) described in a publication of international patent application (Publication No. WO01/34585, applied by SmithKline Beecham Corp.) were tested according to the method of Assay Example 1.

[1] = read-out: EC50 (ng/ml) (converted)

SMILES	Emax [%]	EC50 [1] [nM]	EC50 [ng/mL]	Efficacy (%) (maximal growth rate)
Cc1ccc(-n2nc(C)c(C=NN3C(=O)C(=Cc4ccc(C(=O)O)cc4)SC3=S)c2O)cc1C [Reference Synthetic Example 1, 5-(4-carboxybenzylidene)-3-[(1-{3,4-dimethylphenyl}-5-hydroxy-3-methyl-1H-pyrazol-4-ylmethylene)amino]-2-thioxothiazolidin-4-one, reference compound]	7	–	–	–
Cc1ccc(-n2nc(C)c(C=NN3C(=O)C(=Cc4cccc(C(=O)O)c4)SC3=S)c2O)cc1C [Reference Synthetic Example 2, 5-(3-carboxybenzylidene)-3-[(1-{3,4-dimethylphenyl}-5-hydroxy-3-methyl-1H-pyrazol-4-ylmethylene)amino]-2-thioxothiazolidin-4-one, reference compound]	12	–	–	–
Cc1ccc(-n2nc(C)c(C=NN3CC(=O)N(c4cccc(C(=O)O)c4)C3=S)c2O)cc1C [Reference Synthetic Example 3, 3-(3-carboxyphenyl)-1-[(1-{3,4-dimethylphenyl}-5-hydroxy-3-methyl-1H-pyrazol-4-ylmethylene)amino]-2-thioxoimidazolidin-4-one, reference compound]	7	–	–	–
Cc1ccc(-n2nc(C)c(C=NN3CC(=O)N(c4ccc(C(=O)O)cc4)C3=S)c2O)cc1C [Reference Synthetic Example 4, 3-(4-carboxyphenyl)-1-[(1-{3,4-dimethylphenyl}-5-hydroxy-3-methyl-1H-pyrazol-4-ylmethylene)amino]-2-thioxoimidazolidin-4-one, reference compound]	67	3020	–	–
CC1=NN(c2ccc(I)cc2)C(=O)C1=C(C)NNC(=O)c1ccc(O)cc1O [compound 1]	–	–	7.4	74
CC1=NN(c2ccc(C(C)(C)C)cc2)C(=O)C1=C(C)NNC(=O)c1cc(O)cc(O)c1 [compound 2]	–	–	6.3	89
CC1=NN(c2ccc(C)c(C)c2)C(=O)C1=C(C)NNC(=O)c1cc(O)cc(O)c1 [compound 3]	–	–	15	82
COC(=O)c1ccc(C(=O)NNC(C)=C2C(=O)N(c3ccc(C(C)(C)C)cc3)N=C2C)cc1 [compound 4]	–	–	15	53
CC1=NN(c2ccc(C(C)(C)C)cc2)C(=O)C1=C(C)NNC(=O)c1ccc(C(=O)O)cc1 [compound 5]	–	–	3.4	86
COC(=O)c1ccc(C(=O)NNC(C)=C2C(=O)N(c3ccc(C)c(C)c3)N=C2C)cc1 [compound 6]	64	17.6	–	–
CC1=NN(c2ccc(C)c(C)c2)C(=O)C1=C(C)NNC(=O)c1ccc(C(=O)O)cc1 [compound 7]	–	–	2.2	99
COC(=O)c1ccc(C(=O)NNC(C)=C2C(=O)N(c3cccc(C(F)(F)F)c3)N=C2C)cc1 [compound 8]	52	67.3	–	–
CC1=NN(c2cccc(C(F)(F)F)c2)C(=O)C1=C(C)NNC(=O)c1ccc(C(=O)O)cc1 [compound 9]	–	–	5.1	90
COC(=O)c1ccc(C(=O)NNC(C)=C2C(=O)N(c3ccc(C(F)(F)F)cc3)N=C2C)cc1 [compound 10]	78	43.4	–	–
CC1=NN(c2ccc(C(F)(F)F)cc2)C(=O)C1=C(C)NNC(=O)c1ccc(C(=O)O)cc1 [compound 11]	–	–	2.0	83
CC1=NN(c2ccc(C(C)(C)C)cc2)C(=O)C1=C(C)NNC(=O)c1cccc(C(=O)O)c1 [compound 12]	–	–	76	100

SMILES	Emax [%]	EC50 [1] [nM]	EC50 [ng/mL]	Efficacy (%) (maximal growth rate)
CC1=NN(c2ccc(C)c(C)c2)C(=O)C1=C(C)NNC(=O)c1cccc(C(=O)O)c1 [compound 13]	–	–	280	99
CC1=NN(c2ccccc2)C(=O)C1=C(C)NNC(=O)c1cccc([N+](=O)[O-])c1 [compound 14]	–	–	72	91
CC1=NN(c2ccc(C(C)(C)C)cc2)C(=O)C1=C(C)NNC(=O)c1cccc([N+](=O)[O-])c1 [compound 15]	–	–	23	109
CC1=NN(c2ccccc2)C(=O)C1=C(C)NNC(=O)c1ccccc1O [compound 16]	–	–	61	58
CC1=NN(c2ccccc2)C(=O)C1=C(C)NNC(=O)c1ccc(O)cc1 [compound 17]	–	–	79	73
CC1=NN(c2ccccc2)C(=O)C1=C(C)NNC(=O)c1cc2ccccc2cc1O [compound 18]	–	–	55	94
CC1=NN(c2ccccc2)C(=O)C1=C(C)NNC(=O)c1ccc(O)cc1O [compound 19]	–	–	14	100
CC1=NN(c2ccccc2)C(=O)C1=C(C)NNC(=O)c1ccc(O)c(O)c1 [compound 20]	–	–	38	91
CC1=NN(c2ccccc2)C(=O)C1=C(C)NNC(=O)c1ccccc1[N+](=O)[O-] [compound 21]	–	–	290	39
CC1=NN(c2ccccc2)C(=O)C1=C(C)NNC(=O)c1ccc([N+](=O)[O-])cc1 [compound 22]	–	–	190	50
CC1=NN(c2ccc(C(C)(C)C)cc2)C(=O)C1=C(C)NNC(=O)c1ccccc1O [compound 23]	–	–	28	129
CC1=NN(c2ccc(C(C)(C)C)cc2)C(=O)C1=C(C)NNC(=O)c1ccc(O)cc1 [compound 24]	–	–	7.2	89
CC1=NN(c2ccc(C(C)(C)C)cc2)C(=O)C1=C(C)NNC(=O)c1cc2ccccc2cc1O [compound 25]	–	–	200	54
CC1=NN(c2ccc(C(C)(C)C)cc2)C(=O)C1=C(C)NNC(=O)c1ccc(O)cc1O [compound 26]	–	–	2.9	78
CC1=NN(c2ccc(C(C)(C)C)cc2)C(=O)C1=C(C)NNC(=O)c1ccc(O)c(O)c1 [compound 27]	–	–	5.6	75
CC1=NN(c2ccc(C(C)(C)C)cc2)C(=O)C1=C(C)NNC(=O)c1ccccc1[N+](=O)[O-] [compound 28]	–	–	37	99
